From patent publication US20260193170A1 (University of Copenhagen, priority 2022, published 2026) come the findings set out here.

This test deals with T1, human Keap1 Kelch (Homo sapiens, UniProt Q14145).
T1 construct: human Keap1 Kelch domain (residue 321-609, UniProt Q14145); made in house; host or cells: Escherichia coli BL21 (DE3) pLysS, pRSET A vector
Kind of test: Surface plasmon resonance (SPR), immobilized Keap1 Kelch domain. The format is binding. Conditions: 25 °C, Rmax constrained to 15 RU (theoretical max). An excerpt:
768 fragments from the commercial available (Enamine) DSI-poised library were screened against the human Keap1 Kelch domain using X-ray crystallography. After data collection and processing (example 3), several crystal structures with high-resolution (1.0-2.1 Å) were identified showing fragments bound to the Keap1 binding pocket. […] To confirm XCF #0252 as a hit and determine its affinity to human Keap1 Kelch, this fragment was resynthesized (Scheme 1) and tested by surface plasmon resonance (SPR). In SPR, a dose-dependent activity was observed and an affinity of Kd=0.6 mM was measured (FIG. 2B).
SPR measurements were performed at 25° C. using a Pioneer FE FE instrument (Sartorius). The Keap1 Kelch domain was covalently immobilized on the biosensor chip surface by amine coupling to a level of 2150 RU, using a 10 mM NaOAc pH 5 immobilization buffer. The 1×HBSTET buffer supplemented with 4% DMSO was used as running buffer for the experiments. Microcalibration was performed for all SPR experiments to adjust for DMSO bulk effects (low limit of 3% and a high limit of 4%). The compound was injected in a concentration series of twofold serial dilutions ([…]-1000 μM) using standard injections at a 30 μL/min flow rate. The data were analyzed using Qdat Data Analysis Tool version 2.6.3.0 (Sartorius). […]
(Surface plasmon resonance follows binding to a sensor surface in real time, without labels.)

pKd: −log10 of the molar value.

T1 sequence (Q14145 321-609): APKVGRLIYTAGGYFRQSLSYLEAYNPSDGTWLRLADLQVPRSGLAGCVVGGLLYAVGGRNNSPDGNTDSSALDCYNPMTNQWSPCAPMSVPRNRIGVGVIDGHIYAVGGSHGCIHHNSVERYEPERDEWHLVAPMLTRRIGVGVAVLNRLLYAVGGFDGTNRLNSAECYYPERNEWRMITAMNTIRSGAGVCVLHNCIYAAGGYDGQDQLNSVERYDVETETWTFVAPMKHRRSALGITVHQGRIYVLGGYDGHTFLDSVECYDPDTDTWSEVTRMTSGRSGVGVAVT

By pKd is commonly meant the Kd on a negative log10 scale, so that one unit is a factor of ten. For `O=C(COc1ccccc1)NC1CCCCC1` [XCF #0252, N-Cyclohexyl-2-phenoxyacetamide], the pKd is 3.22.
